The values below come from patent US20240391954A1, “MC4R AGONIST PEPTIDES” (The Regents of the University of Michigan, priority 2021, published 2024).

One test has as its target T1, human MC3R (Homo sapiens, UniProt P41968).
T1 construct: expressed in transfected cells; host or cells: HEK-293 cells stably expressing the GScAMP22F split-luciferase cAMP sensor (parent reporter line from Promega); MC3R clone generated in-house, G418 selection
Description: split-luciferase cAMP sensor assay, agonist mode (measurement window 1), hMC3R. The settings on record: for Emax / EC50: agonist mode; for Emax: read-out: MC3R cAMP % max activation; for EC50: read-out: MC3R cAMP EC50. The class given is cell-based. An outline of the steps:
(§1)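 Live stable cell lines carrying receptor plus GloSensor cAMP22f split-luciferase, loaded with 4% D-luciferin in serum-free medium (~1% serum estimated during assay). Luminescence recorded during in-line peptide addition; direct agonist effect read in window 1, with 20 μM forskolin as normalization reference. EC50 from four-parameter sigmoid fit.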

The target in a further test is T2, human MC4R (Homo sapiens, UniProt P32245).
T2 construct: host or cells: HEK-293 cells stably expressing the GScAMP22F split-luciferase cAMP sensor and hMC4R, G418 selection
T2 sequence (P32245 whole entry): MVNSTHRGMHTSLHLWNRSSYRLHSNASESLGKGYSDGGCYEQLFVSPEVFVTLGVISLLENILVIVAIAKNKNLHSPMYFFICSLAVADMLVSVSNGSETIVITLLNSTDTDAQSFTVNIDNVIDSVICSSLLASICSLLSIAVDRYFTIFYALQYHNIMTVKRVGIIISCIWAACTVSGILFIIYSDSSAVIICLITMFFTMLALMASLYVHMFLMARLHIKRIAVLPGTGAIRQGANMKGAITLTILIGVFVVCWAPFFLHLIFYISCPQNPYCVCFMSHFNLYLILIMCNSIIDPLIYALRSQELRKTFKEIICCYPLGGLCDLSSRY
Put plainly: split-luciferase cAMP sensor assay, agonist mode (measurement window 1), hMC4R. It counts as cell-based. The following applies: for Emax / EC50: agonist mode; for Emax: read-out: MC4R cAMP % max activation; for EC50: read-out: MC4R cAMP EC50. An outline of the steps:
as §1

The structures appear in SMILES notation. Like-named read-outs stand apart in the source and are kept apart here. Positions of bridges follow the written chain, without caps; N, C: chain ends. Non-standard residues stand in square brackets, D forms with d. Residues, ends and D or L forms follow the SMILES beside them. dPhe(4-Br) = N[C@H](Cc1ccc(Br)cc1)C(=O)O; d(αMeF) = C[C@@](N)(Cc1ccccc1)C(=O)O; dNMeF = CN[C@H](Cc1ccccc1)C(=O)O; Nle = CCCC[C@H](N)C(=O)O

The EC50 is the concentration needed to bring the measured effect to its halfway point.

T1 sequence (P41968 whole entry): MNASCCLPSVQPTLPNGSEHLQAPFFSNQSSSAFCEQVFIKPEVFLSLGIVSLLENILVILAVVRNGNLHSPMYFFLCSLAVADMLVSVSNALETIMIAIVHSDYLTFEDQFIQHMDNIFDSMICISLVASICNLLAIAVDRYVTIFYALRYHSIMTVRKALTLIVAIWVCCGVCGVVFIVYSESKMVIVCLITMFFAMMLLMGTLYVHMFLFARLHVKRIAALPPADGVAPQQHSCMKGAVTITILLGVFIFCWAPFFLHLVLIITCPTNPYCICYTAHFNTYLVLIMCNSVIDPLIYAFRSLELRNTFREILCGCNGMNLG

Consider `CC(=O)N[C@H]1CSSC[C@@H](C(N)=O)NC(=O)[C@H](Cc2c[nH]c3ccccc23)NC(=O)[C@H](CCCNC(=N)N)NC(=O)[C@@H](Cc2ccccc2)NC(=O)[C@H](Cc2c[nH]cn2)NC(=O)CNC1=O` [CTX-1206, cyclo(Cys-Gly-His-D-Phe-Arg-Trp-Cys)] (Ac-CGH[dF]RWC-NH2; disulfide 1-7 (inferred)), for which the Emax at human MC3R (% maximal activation) came to 94%; at human MC4R (% maximal activation) it was 101%. Also, the results for the EC50 on human MC3R (HEK-293 cells stably expressing hMC3R) and on human MC4R (HEK-293 cells stably expressing hMC4R) were 12 nM and 0.52 nM, respectively. Besides, on human MC3R (MC4R versus MC3R), the “MC4R selectivity vs MC3R” value is reported as 23.

As to `CC(=O)N[C@@H](CCCNC(=N)N)C(=O)N[C@H]1CSSC[C@@H](C(N)=O)NC(=O)[C@@H](Cc2c[nH]c3ccccc23)NC(=O)[C@H](CCCNC(=N)N)NC(=O)[C@@H](Cc2ccccc2)NC(=O)[C@H](Cc2c[nH]cn2)NC(=O)[C@@H](C)NC1=O` [CTX-1262, Arg-cyclo(Cys-D-Ala-His-D-Phe-Arg-D-Trp-Cys)], the Emax at human MC3R (% maximal activation) worked out at 65%; at human MC4R (% maximal activation), 88%.

On to `CC(=O)N[C@@H](CCCNC(=N)N)C(=O)N[C@H]1CSSC[C@@H](C(N)=O)NC(=O)[C@H](Cc2c[nH]c3ccccc23)NC(=O)[C@H](CCCNC(=N)N)NC(=O)[C@@H](Cc2c[nH]c3ccccc23)NC(=O)[C@H](CCCNC(=N)N)NC(=O)[C@@H](C)NC1=O` [CTX-1274, Arg-cyclo(Cys-D-Ala-Arg-D-Trp-Arg-Trp-Cys)] (Ac-RC[dA]R[dW]RWC-NH2; disulfide 2-8), for which the Emax at human MC3R (hMC3R stable cell line) was 5.4%. Besides, on human MC4R, the “MC4R selectivity vs MC1R” value is listed as 0.19 and the “MC4R selectivity vs MC3R” value is given as 0.12. Moreover, on human MC4R (hMC4R stable cell line), the Emax is 77% and the EC50 was 1400 nM.

With `CCCC[C@H](NC(=O)[C@H](CCCNC(=N)N)NC(C)=O)C(=O)N[C@H]1CSSC[C@@H](C(N)=O)NC(=O)[C@H](Cc2c[nH]c3ccccc23)NC(=O)[C@H](CCCNC(=N)N)NC(=O)[C@@H](Cc2ccc(Br)cc2)NC(=O)[C@H](Cc2c[nH]cn2)NC1=O` [CTX-1229, Arg-Nle-cyclo(Cys-His-D-Phe(4-Br)-Arg-Trp-Cys)] (Ac-R[Nle]CH[dPhe(4-Br)]RWC-NH2; disulfide 3-8 (inferred)), at human MC3R (hMC3R stable cell line), the Emax was 16% and the half-maximal effective concentration (EC50) came to 3.5 nM. Moreover, the Emax at human MC4R (hMC4R stable cell line) turned out to be 31%. Also, the “MC4R selectivity vs MC1R” value at human MC4R (cell printed in nM (see doubts)) came to 18 nM.

In the case of `COc1ccc(C[C@H]2NC(=O)[C@H](CCCNC(=N)N)NC(=O)CNC(=O)[C@@H](NC(C)=O)CSSC[C@@H](C(N)=O)NC(=O)[C@H](Cc3ccccc3)NC(=O)[C@H](CCCNC(=N)N)NC2=O)cc1` [CTX-1641, cyclo(Cys-Gly-Arg-D-Tyr(4-OMe)-Arg-Phe-Cys)] (Ac-CGR[dY](Me)RFC-NH2; disulfide 1-7), at human MC3R (hMC3R stable cell line), the Emax came to 22% and the 50% effective concentration (EC50) amounted to 52 nM. Further, at human MC4R, the “MC4R selectivity vs MC1R” value is 0.28 and the “MC4R selectivity vs MC3R” value was 1.18. Also, on human MC4R (hMC4R stable cell line), the Emax came to 104%.

Turning to `CC(=O)N[C@@H](CCCNC(=N)N)C(=O)N[C@H]1CSSC[C@@H](C(N)=O)NC(=O)[C@@H](Cc2c[nH]c3ccccc23)NC(=O)[C@H](CCCNC(=N)N)NC(=O)[C@@H](Cc2ccc(Br)cc2)NC(=O)[C@@H]2CCCN2C(=O)[C@@H](C)NC1=O` [CTX-1249, Arg-cyclo(Cys-D-Ala-Pro-D-Phe(4-Br)-Arg-D-Trp-Cys)] (Ac-RC[dA]P[dPhe(4-Br)]R[dW]C-NH2; disulfide 2-8), the Emax on human MC3R (hMC3R stable cell line) is 1.9%. Besides, on human MC4R, the “MC4R selectivity vs MC1R” value came out at 5.08 and the “MC4R selectivity vs MC3R” value turned out to be 0.45. In addition, at human MC4R (hMC4R stable cell line), the Emax was 22% and the half-maximal effective concentration (EC50) was 14 nM.

Take `CC(=O)N[C@@H](CCCNC(=N)N)C(=O)N[C@H]1CSSC[C@@H](C(N)=O)NC(=O)[C@@H](Cc2c[nH]c3ccccc23)NC(=O)[C@H](CCCNC(=N)N)NC(=O)[C@@](C)(Cc2ccccc2)NC(=O)[C@H](CCCNC(=N)N)NC(=O)[C@@H](C)NC1=O` [CTX-1279, Arg-cyclo(Cys-D-Ala-Arg-a-Me-D-Phe-Arg-D-Trp-Cys)] (Ac-RC[dA]R[d(αMeF)]R[dW]C-NH2; disulfide 2-8): the Emax on human MC3R (hMC3R stable cell line) is 20%. For the same molecule, at human MC4R, the “MC4R selectivity vs MC1R” value came out at 0.83 and the “MC4R selectivity vs MC3R” value was 0.61. Further, at human MC4R (hMC4R stable cell line), the Emax is 79% and the EC50 was determined as 72 nM.

With `CCCC[C@H](NC(=O)[C@H](CCCNC(=N)N)NC(C)=O)C(=O)N[C@H]1CSSC[C@@H](C(N)=O)NC(=O)[C@H](Cc2c[nH]c3ccccc23)NC(=O)[C@H](CCCNC(=N)N)NC(=O)[C@@H](Cc2ccc(OC)cc2)NC(=O)[C@H](CCCNC(=N)N)NC1=O` [CTX-1614, Arg-Nle-cyclo(Cys-Arg-D-Tyr(4-OMe)-Arg-Trp-Cys)] (Ac-R[Nle]CR[dY](Me)RWC-NH2; disulfide 3-8 (inferred)), the Emax at human MC3R (hMC3R stable cell line) is 28%. On human MC4R, the “MC4R selectivity vs MC1R” value worked out at 0.08 and the “MC4R selectivity vs MC3R” value stood at 1.89. Besides, at human MC4R (hMC4R stable cell line), the Emax was 41% and the EC50 amounted to 1.7 nM.

In the case of `CC(=O)N[C@@H](CCCNC(=N)N)C(=O)N[C@H]1CSSC[C@@H](C(N)=O)NC(=O)[C@@H](Cc2c[nH]c3ccccc23)NC(=O)[C@H](CCCNC(=N)N)NC(=O)[C@@H](Cc2ccccc2)N(C)C(=O)[C@H](CCCNC(=N)N)NC(=O)[C@@H](C)NC1=O` [CTX-1272, Arg-cyclo(Cys-D-Ala-Arg-NMe-D-Phe-Arg-D-Trp-Cys)] (Ac-RC[dA]R[dNMeF]R[dW]C-NH2; disulfide 2-8 (inferred)), the Emax at human MC3R (hMC3R stable cell line) turned out to be 0.9%. Besides, on human MC4R, the “MC4R selectivity vs MC1R” value is given as 0.21 and the “MC4R selectivity vs MC3R” value is reported as 0.9. For the same molecule, at human MC4R (hMC4R stable cell line), the Emax turned out to be 5.3%.

As for `CC(=O)N[C@@H](CCCNC(=N)N)C(=O)N[C@H]1CSSC[C@@H](C(N)=O)NC(=O)[C@@H](Cc2c[nH]c3ccccc23)NC(=O)[C@@H](CCCNC(=N)N)NC(=O)[C@@H](Cc2ccc(Br)cc2)NC(=O)[C@H](CCCNC(=N)N)NC(=O)[C@@H](C)NC1=O` [CTX-1252, Arg-cyclo(Cys-D-Ala-Arg-D-Phe(4-Br)-D-Arg-D-Trp-Cys)] (Ac-RC[dA]R[dPhe(4-Br)][dR][dW]C-NH2; disulfide 2-8 (inferred)), the Emax on human MC3R (hMC3R stable cell line) is 1.1%. Also, at human MC4R, the “MC4R selectivity vs MC1R” value turned out to be 0.04 and the “MC4R selectivity vs MC3R” value is 0.06. Moreover, the Emax on human MC4R (hMC4R stable cell line) worked out at 4.4%.

For `CC(=O)N[C@@H](CCCNC(=N)N)C(=O)N[C@H]1CSSC[C@@H](C(N)=O)NC(=O)[C@@H](Cc2ccccc2)NC(=O)[C@H](CCCNC(=N)N)NC(=O)[C@@H](Cc2ccc(Br)cc2)NC(=O)[C@H](CCCNC(=N)N)NC(=O)[C@@H](C)NC1=O` [CTX-1255, Arg-cyclo(Cys-D-Ala-Arg-D-Phe(4-Br)-Arg-D-Phe-Cys)] (Ac-RC[dA]R[dPhe(4-Br)]R[dF]C-NH2; disulfide 2-8 (inferred)), the results for the Emax at human MC3R (hMC3R stable cell line) and on human MC4R (hMC4R stable cell line) were 28% and 60%, respectively. The “MC4R selectivity vs MC1R” value at human MC4R was determined as 0.05. In addition, on human MC4R, the “MC4R selectivity vs MC3R” value is recorded as 0.24.

On to `CC(=O)N[C@@H](CCCNC(=N)N)C(=O)N[C@H]1CSSC[C@@H](C(N)=O)NC(=O)[C@H](Cc2c[nH]c3ccccc23)NC(=O)[C@@H](CCCNC(=N)N)NC(=O)[C@@H](Cc2ccccc2)NC(=O)[C@H](CCCNC(=N)N)NC(=O)[C@@H](C)NC1=O` [CTX-1282, Arg-cyclo(Cys-D-Ala-Arg-D-Phe-D-Arg-Trp-Cys)] (Ac-RC[dA]R[dF][dR]WC-NH2; disulfide 2-8 (inferred)), for which the Emax at human MC3R (hMC3R stable cell line) came to 4.2%. At human MC4R, the “MC4R selectivity vs MC1R” value is 0.14 and the “MC4R selectivity vs MC3R” value was determined as 0.38. For the same molecule, at human MC4R (hMC4R stable cell line), the Emax was found to be 72%.
